Test [1] has as its system Male Dunkin Hartley guinea pigs. Description: Simple citric acid cough model. To be noted: guinea pig; for Average cough times: 17.5% citric acid. Type of test: in vivo. On the procedure: Male Dunkin Hartley guinea pigs (300-350 g) were placed in an animal atomization box, and then the door of the atomization box was closed while the ultrasonic atomizer (Guangdong Yuehua) was turned on. 17.5% citric acid gas was introduced into the atomization box at a maximum atomization rate (about 2 mL/min) for 20 s, and coughs of the animals within 10 min were continuously observed from the time of the start of atomization. During the 10-min observation, coughs of the animals needed to be counted manually, and the number of coughs were judged according to cough postures of the guinea pigs, such as abdominal twitching, mouth opening, and head inclining downward abruptly. The number of coughs during the first 5 min and that during 10 min were recorded, and the cough latency of the guinea pigs, namely the time from the initiation of citric acid induction to the appearance of the 1st cough, was also recorded.

The target in test [2] is T1, hP2X4 (human purinergic P2X receptor subtype 4) (Homo sapiens, UniProt Q99571).
T1 sequence (Q99571 1-404 isoform Q99571-2): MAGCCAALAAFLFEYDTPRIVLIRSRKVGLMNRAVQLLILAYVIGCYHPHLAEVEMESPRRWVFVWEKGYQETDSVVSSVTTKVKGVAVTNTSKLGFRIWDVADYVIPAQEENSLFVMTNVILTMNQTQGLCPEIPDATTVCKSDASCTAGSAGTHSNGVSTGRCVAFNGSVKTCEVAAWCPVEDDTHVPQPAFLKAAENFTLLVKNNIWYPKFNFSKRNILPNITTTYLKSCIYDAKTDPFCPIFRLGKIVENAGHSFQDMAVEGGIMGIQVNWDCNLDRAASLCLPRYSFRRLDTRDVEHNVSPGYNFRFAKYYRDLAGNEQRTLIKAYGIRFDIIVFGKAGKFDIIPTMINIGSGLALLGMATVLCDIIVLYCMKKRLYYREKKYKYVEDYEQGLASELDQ
To be noted: P2X4 IC50 (nM), HEK293 cells stably expressing hP2X4; agonist BZ-ATP 2.5 μM; FLIPR calcium.
Protocol: Cells at 400,000 cells/mL were seeded into a 384-well plate (10,000 cells/well) 18-24 h prior to the FLIPR experiment and then incubated overnight in a cell incubator. […] Each well was added with 20 μL of 0.5×Calcium 6 fluorescent dye (Molecular Devices, R8190) and then the cells were subjected to dye-loading incubation at 37° C. for 1.5 h. Each well was added with 10 μL of respective test compound (dissolved in DMSO at a concentration of 10 mM and serially diluted with buffer) or vehicle and the mixture was equilibrated for 30 min at room temperature.

Where [3] appears, read: 60 mg/kg group, before administration.
The mark [4] stands for this setting: citric acid, 20 mg/kg and 60 mg/kg, dose-dependent, vs vehicle group or before administration.

Each structure is given as a SMILES string. Where only a bound is given, the exact number is not on record here.

Consider `COc1ccc2c(c1)[C@]13CCCC[C@@H]1[C@H](C2)N(C)CC3` [Dextromethorphan, dextromethorphan, reference compound], for which the Average cough times in test [1] (setting [3]) came to 19.70; in test [1] (60 mg/kg, after administration) it was 11.20. Further, the “Cough inhibition rate Vs basic value (%)” value in test [1] (citric acid, 60 mg/kg) came out at 43.15%. Besides, the “Cough inhibition rate Vs vehicle (%)” value in test [1] (citric acid, 60 mg/kg) came out at 38.54%.

What is called IC50 is the point on the concentration scale where inhibition reaches its midpoint. Regarding `COc1nccc2c(S(N)(=O)=O)cc(NC(=O)Cc3ccccc3Cl)cc12` [Compound 1, 2-(2-chlorophenyl)-N-(1-methoxy-5-sulfamoylisoquinolin-7-yl)acetamide], in test [2], the concentration for half-maximal inhibition (IC50) is under 10 nM. Moreover, the Average cough times in test [1] (20 mg/kg group, before administration) is listed as 19.00; in test [1] (20 mg/kg, after administration) it was 11.22; in test [1] (setting [3]), 19.40; in test [1] (60 mg/kg, after administration), 10.50; in test [1] (100 mg/kg group, before administration), 19.90; in test [1] (100 mg/kg, after administration), 8.60. In addition, the “Cough inhibition rate Vs basic value (%)” value in test [1] (citric acid, 20 mg/kg) came out at 40.94%; in test [1] (citric acid, 60 mg/kg), 45.88%; in test [1] (citric acid, 100 mg/kg) it was 56.78%. The “Cough inhibition rate Vs vehicle (%)” value in test [1] (citric acid, 20 mg/kg) is 38.41%; in test [1] (citric acid, 60 mg/kg), 42.38%; in test [1] (citric acid, 100 mg/kg), 52.80%. For the same compound, in test [1] (setting [4]), the cough latency entry is “prolong the cough latency”. Also, the number of coughs entry in test [1] (setting [4]) is given as “reduce the number of coughs”. Further, the “drug effect compared with dextromethorphan at the same dosage” value in test [1] (citric acid, 60 mg/kg) is “no significant difference in the drug effect compared with the positive compound dextromethorphan”.

As to `CN1CCN(c2cc3c(S(N)(=O)=O)cc(NC(=O)Cc4ccccc4Cl)cc3cn2)CC1=O` [Compound 80, 2-(2-chlorophenyl)-N-(3-(4-methyl-3-carbonylpiperazin-1-yl)-5-sulfamoylisoquinolin-7-yl)acetamide], the half-maximal inhibitory concentration (IC50) in test [2] lay in the range of 50 to 200 nM.

`COc1nccc2c(S(C)(=N)=O)cc(NC(=O)Cc3ccccc3Cl)cc12` (stereo not shown) [Compound 53, 2-(2-chlorophenyl)-N-(1-methoxy-5-(S-methylsulfonimidoyl)isoquinolin-7-yl)acetamide]: the IC50 in test [2] lay within 200 to 5000 nM.

Consider `NS(=O)(=O)c1cc(NC(=O)Cc2ccccc2Cl)cc2cnc(N3CCOCC3)cc12` [Compound 78, 2-(2-chlorophenyl)-N-(3-morpholino-5-sulfamoylisoquinolin-7-yl)acetamide], for which the IC50 in test [2] lay in the range of 50 to 200 nM.

As to `Cc1ccc(Oc2nccc3c(S(N)(=O)=O)cc(NC(=O)Cc4ccccc4Cl)cc23)cc1` [Compound 34, 2-(2-chlorophenyl)-N-(5-sulfamoyl-1-(p-tolyloxy)isoquinolin-7-yl)acetamide], the IC50 in test [2] is 10 to 50 nM.

As to `COc1nccc2c(S(N)(=O)=O)cc(NC(=O)Cc3ccc(F)cc3Cl)cc12` [Compound 94, 2-(2-chloro-4-fluorophenyl)-N-(1-methoxy-5-sulfamoylisoquinolin-7-yl)acetamide], the IC50 in test [2] fell in the range of 50 to 200 nM.

(Values after patent publication US12692235B2, “Fused ring compound and application thereof” (WUHAN LL SCIENCE AND TECHNOLOGY DEVELOPMENT CO., LTD., priority 2019, dated 2026).)
